{"source": "paper PMC5804415", "about": "“Comparison of ^68Ga-DOTA-Siglec-9 and ^18F-Fluorodeoxyribose-Siglec-9: Inflammation Imaging and Radiation Dosimetry” (Contrast Media & Molecular Imaging, 2017)", "key": {"[1]": {"tested_on": "rats with skin/muscle inflammation (turpentine oil)", "format": "in vivo, rat", "conditions": "rat, in vivo, iv", "description": "Rats were divided into two groups with Group 1 being intravenously (i.v.) given ^68Ga-DOTA-Siglec-9 (16 ± 2.9 MBq, n = 8) and Group 2 ^18F-FDR-Siglec-9 (18 ± 5.1 MBq, n = 8). A 60 min dynamic PET acquisition was performed on a High Resolution Research Tomograph (HRRT; Siemens Medical Solutions, Knoxville, TN, USA). The PET data were reconstructed into 5 × 60 s and 11 × 300 s frames using an ordered-subsets expectation maximization 3D algorithm (OSEM3D). Quantitative PET image analysis was performed by defining regions of interest (ROIs) within the inflamed area (on the left foreleg), control area (on the right foreleg), kidneys, lungs, heart, liver, and urinary bladder using […] 2.8 software (Turku PET Centre). Results were expressed as standardized uptake values (SUV) and time-activity curves. SUV was calculated as a ratio of tissue radioactivity concentration (Bq/mL) and given radioactivity dose (Bq) divided by animal's body weight."}, "[2]": {"conditions": "SD", "quoted_text": "Absorbed doses of ^68Ga-DOTA-Siglec-9 and ^18F-FDR-Siglec-9 were calculated with the OLINDA/EXM version 1.0 software (organ level internal dose assessment and exponential modeling; Vanderbilt University, Nashville, TN, USA), which applies the MIRD schema (developed by the Medical Internal Radiation Dose committee of the Society of Nuclear Medicine) for radiation dose calculations in internal exposure. The software includes radionuclide information and selection of human body phantoms. The residence times derived from the rat data were integrated as the area under the time-activity curve. The residence times were converted into corresponding human values by multiplication with a factor to scale the organ and body weights: (WBody,rat/WOrgan,rat)×(WOrgan,human/WBody,human), where WBody,rat and WBody,human are the body weights of rat and human (a 70-kg male), respectively; and WOrgan,rat and WOrgan,human are the organ weights of rat and human (organ weights for a 70 kg male), respectively [14]."}, "[3]": {"tested_on": "LDLR^−/−ApoB^100/100 atherosclerotic mice", "design": "method as in PMID 27731409", "conditions": "mouse, in vivo; cited from earlier work"}, "[4]": {"test": "in vivo", "conditions": "Sprague-Dawley, rat, iv, total radioactivity, Ex vivo biodistribution, SD", "excerpt": "Twenty-four hours before the PET studies, Sprague-Dawley rats (weight, 350 ± 22 g; n = 16) were subcutaneously injected with turpentine oil (Sigma-Aldrich) to induce focal acute, sterile inflammation [12]. Before the injection, rats were shaved on the both forelegs. Inflamed area on the left foreleg contained both skin and muscle. The intact, contralateral side (right foreleg) was used as a control.\nAfter PET imaging, rats were sacrificed and various tissues were excised and weighed, and their radioactivity levels were measured with a gamma counter (1480 Wizard 3′′, PerkinElmer, Turku, Finland). The ex vivo biodistribution results were expressed as a percentage of the injected radioactivity dose per gram of tissue (% ID/g) and target-to-background ratio."}}, "note": "Positions of bridges follow the written chain, without caps; N, C: chain ends. Residues, ends and D or L forms follow the SMILES beside them. *: point of attachment. DOTA = O=C(O)CN1CCN(CC(=O)O)CCN(CC(=O)*)CCN(CC(=O)O)CC1; AEEA = NCCOCCOCC(=O)O", "data": [{"smiles": "CC(C)C[C@@H]1NC(=O)CNC(=O)[C@H](CCCNC(=N)N)NC(=O)[C@H](Cc2c[nH]c3ccccc23)NC(=O)[C@H](CO)NC(=O)[C@H](CC(C)C)NC(=O)[C@H](CO)NC(=O)[C@H](CC(C)C)NC(=O)[C@H](CCCNC(=N)N)NC(=O)[C@H](C)NC(=O)[C@@H](NC(=O)COCCOCCNC(=O)CN2CCN(CC(=O)O)CCN(CC(=O)O)CCN(CC(=O)O)CC2)CSSC[C@@H](C(=O)N2CCC[C@H]2C(=O)N[C@@H](CO)C(=O)N[C@@H](CCCCN)C(=O)O)NC(=O)[C@H](CC(C)C)NC(=O)[C@H]([C@@H](C)O)NC1=O", "note": "[^68Ga-DOTA-Siglec-9, metal not drawn] ({DOTA-AEEA}-CARLSLSWRGLTLCPSK-OH; disulfide 1-14)", "values": [{"measurement": "time of peak uptake in the inflamed area after the i.v. bolus injection", "setting": "[1]", "result": "about 10 min"}, {"measurement": "Human dose equivalent estimate, Adrenals", "setting": "[2]", "result": "0.014 ± 0.0012", "unit": "mSv/MBq"}, {"measurement": "Human dose equivalent estimate, Brain", "setting": "[2]", "result": "0.012 ± 0.00077", "unit": "mSv/MBq"}, {"measurement": "Human dose equivalent estimate, Breasts", "setting": "[2]", "result": "0.011 ± 0.00064", "unit": "mSv/MBq"}, {"measurement": "Human dose equivalent estimate, Gallbladder wall", "setting": "[2]", "result": "0.014 ± 0.00065", "unit": "mSv/MBq"}, {"measurement": "Human dose equivalent estimate, Heart wall", "setting": "[2]", "result": "0.0083 ± 0.0010", "unit": "mSv/MBq"}, {"measurement": "Human dose equivalent estimate, Kidneys", "setting": "[2]", "result": "0.15 ± 0.12", "unit": "mSv/MBq"}, {"measurement": "Human dose equivalent estimate, Liver", "setting": "[2]", "result": "0.012 ± 0.0024", "unit": "mSv/MBq"}, {"measurement": "Human dose equivalent estimate, Lower large intestine wall", "setting": "[2]", "result": "0.015 ± 0.00077", "unit": "mSv/MBq"}, {"measurement": "Human dose equivalent estimate, Lungs", "setting": "[2]", "result": "0.0044 ± 0.00054", "unit": "mSv/MBq"}, {"measurement": "Human dose equivalent estimate, Muscle", "setting": "[2]", "result": "0.0050 ± 0.00018", "unit": "mSv/MBq"}, {"measurement": "Human dose equivalent estimate, Osteogenic cells", "setting": "[2]", "result": "0.017 ± 0.00094", "unit": "mSv/MBq"}, {"measurement": "Human dose equivalent estimate, Ovaries", "setting": "[2]", "result": "0.015 ± 0.00064", "unit": "mSv/MBq"}, {"measurement": "Human dose equivalent estimate, Pancreas", "setting": "[2]", "result": "0.014 ± 0.00085", "unit": "mSv/MBq"}, {"measurement": "Human dose equivalent estimate, Red marrow", "setting": "[2]", "result": "0.010 ± 0.00037", "unit": "mSv/MBq"}, {"measurement": "Human dose equivalent estimate, Skin", "setting": "[2]", "result": "0.010 ± 0.00054", "unit": "mSv/MBq"}, {"measurement": "Human dose equivalent estimate, Small intestine", "setting": "[2]", "result": "0.014 ± 0.00047", "unit": "mSv/MBq"}, {"measurement": "Human dose equivalent estimate, Spleen", "setting": "[2]", "result": "0.014 ± 0.0011", "unit": "mSv/MBq"}, {"measurement": "Human dose equivalent estimate, Stomach wall", "setting": "[2]", "result": "0.013 ± 0.00065", "unit": "mSv/MBq"}, {"measurement": "Human dose equivalent estimate, Testes", "setting": "[2]", "result": "0.013 ± 0.00062", "unit": "mSv/MBq"}, {"measurement": "Human dose equivalent estimate, Thymus", "setting": "[2]", "result": "0.011 ± 0.00068", "unit": "mSv/MBq"}, {"measurement": "Human dose equivalent estimate, Thyroid", "setting": "[2]", "result": "0.011 ± 0.00072", "unit": "mSv/MBq"}, {"measurement": "Human dose equivalent estimate, Total body", "setting": "[2]", "result": "0.013 ± 0.00041", "unit": "mSv/MBq"}, {"measurement": "Human dose equivalent estimate, Upper large intestine wall", "setting": "[2]", "result": "0.014 ± 0.00046", "unit": "mSv/MBq"}, {"measurement": "Human dose equivalent estimate, Urinary bladder wall", "setting": "[2]", "result": "0.20 ± 0.087", "unit": "mSv/MBq"}, {"measurement": "Human dose equivalent estimate, Uterus", "setting": "[2]", "result": "0.018 ± 0.0017", "unit": "mSv/MBq"}, {"measurement": "Human effective dose estimate", "setting": "[2]", "result": "0.024 ± 0.0041", "unit": "mSv/MBq"}, {"measurement": "Normalized number of disintegrations, Heart wall", "setting": "[2]", "result": "0.0029 ± 0.00072", "unit": "h"}, {"measurement": "Normalized number of disintegrations, Kidneys", "setting": "[2]", "result": "0.093 ± 0.081", "unit": "h"}, {"measurement": "Normalized number of disintegrations, Liver", "setting": "[2]", "result": "0.033 ± 0.0097", "unit": "h"}, {"measurement": "Normalized number of disintegrations, Lungs", "setting": "[2]", "result": "0.0026 ± 0.0011", "unit": "h"}, {"measurement": "Normalized number of disintegrations, Muscle", "setting": "[2]", "result": "0.054 ± 0.0088", "unit": "h"}, {"measurement": "Normalized number of disintegrations, Total body", "setting": "[2]", "result": "1.3 ± 0.085", "unit": "h"}, {"measurement": "Normalized number of disintegrations, Urinary bladder wall", "setting": "[2]", "result": "0.17 ± 0.076", "unit": "h"}, {"measurement": "aortic uptake, previously reported", "setting": "[3]", "result": "0.83 ± 0.33", "unit": "% ID/g"}, {"measurement": "tissue uptake at 1 h", "setting": "[4]; Adipose tissue, BAT", "result": "0.024 ± 0.026", "unit": "%ID/g"}, {"measurement": "tissue uptake at 1 h", "setting": "[4]; Adipose tissue, WAT", "result": "0.027 ± 0.014", "unit": "%ID/g"}, {"measurement": "tissue uptake at 1 h", "setting": "[4]; Blood", "result": "0.099 ± 0.04", "unit": "%ID/g"}, {"measurement": "tissue uptake at 1 h", "setting": "[4]; Bone (femoral)", "result": "0.02 ± 0.0089", "unit": "%ID/g"}, {"measurement": "tissue uptake at 1 h", "setting": "[4]; Bone marrow", "result": "0.039 ± 0.012", "unit": "%ID/g"}, {"measurement": "tissue uptake at 1 h", "setting": "[4]; Brain", "result": "0.0062 ± 0.0049", "unit": "%ID/g"}, {"measurement": "tissue uptake at 1 h", "setting": "[4]; Control area", "result": "0.051 ± 0.0063", "unit": "%ID/g"}, {"measurement": "tissue uptake at 1 h", "setting": "[4]; Heart", "result": "0.03 ± 0.011", "unit": "%ID/g"}, {"measurement": "tissue uptake at 1 h", "setting": "[4]; Inflamed area", "result": "0.12 ± 0.032", "unit": "%ID/g"}, {"measurement": "tissue uptake at 1 h", "setting": "[4]; Kidneys", "result": "2.8 ± 1.8", "unit": "%ID/g"}, {"measurement": "tissue uptake at 1 h", "setting": "[4]; Liver", "result": "0.32 ± 0.16", "unit": "%ID/g"}, {"measurement": "tissue uptake at 1 h", "setting": "[4]; Lungs", "result": "0.079 ± 0.035", "unit": "%ID/g"}, {"measurement": "tissue uptake at 1 h", "setting": "[4]; Muscle", "result": "0.019 ± 0.0091", "unit": "%ID/g"}, {"measurement": "tissue uptake at 1 h", "setting": "[4]; Pancreas", "result": "0.024 ± 0.0024", "unit": "%ID/g"}, {"measurement": "tissue uptake at 1 h", "setting": "[4]; Plasma", "result": "0.13 ± 0.015", "unit": "%ID/g"}, {"measurement": "tissue uptake at 1 h", "setting": "[4]; Small intestine", "result": "0.06 ± 0.016", "unit": "%ID/g"}, {"measurement": "tissue uptake at 1 h", "setting": "[4]; Spleen", "result": "0.19 ± 0.11", "unit": "%ID/g"}, {"measurement": "tissue uptake at 1 h", "setting": "[4]; male, Testis", "result": "0.035 ± 0.031", "unit": "%ID/g"}]}]}
